Reference: patent publication US20120009203A1, “Depletion of cancer stem cells” (priority 2010, published 2012)
“Also recorded” adds a separate entry of the source.

Assays:
[1] = system: OSCSCs; assay: Cell death of OSCSCs by propidium iodide staining; assay type: cell-based, human; details: overnight
Method: (§1) OSCSCs and OSCCs were treated with HEMA (1:600) and the chemotherapeutic drug cisplatinum at 10 μg/ml, 40 μg/ml and 80 μg/ml. After an overnight incubation the levels of cell death in each tumor type was determined using propidium iodide staining.
(§2) OSCSCs and OSCCs were irradiated at 2 Gy, 10 Gy and 20 Gy and left untreated or treated with chemotherapeutic drug cisplatinum at 40 μg/ml. After an overnight incubation the levels of cell death in each tumor type was determined using propidium iodide staining.
(§3) OSCSC and OSCCs were treated with Paclitaxel at 10 μg/ml, 40 μg/ml and 80 μg/ml in the presence and absence of NAC (20 mM) and after an overnight incubation the levels of cell death were determined using propidium iodide staining.

[2] = system: undifferentiated MSCs; assay: Cell death of MSCs versus osteoblasts, flow cytometry of PI stained cells; assay type: cell-based, human; details: undifferentiated MSCs compared to differentiated osteoblasts; different concentrations of HEMA; overnight; FIG. 8F
Method: FIG. 8. […] After 2 days of co-cultures, Alkaline Phosphatase staining was performed. […] The ALP stain densities for each well were determined using photoshop software (B). […] After 2 days of co-cultures Alkaline Phosphatase staining was performed. […] The ALP stain densities for each well were determined using photoshop software (D). Stem cells and Osteoblasts were cultured with and without untreated PBMCs as described above and after two days of incubation the supernatants were removed and subjected to specific ELISA for VEGF (E). Undifferentiated MSCs and those differentiated to osteoblasts were cultured in the absence and presence of different concentrations of HEMA as indicated in the figure and the levels of cell death were determined by flow cytometric analysis of PI stained MSCs and osteoblasts after an overnight incubation (F). […] After an overnight incubation, the cells were washed and B7H1 surface expression was determined on MSC gated populations. Isotype control antibodies were used as controls (I). MSCs were left untreated or treated with IFN-γ (500 u/ml). After an overnight incubation, MSCs were washed and the B7H1 surface expression was determined on MSC.
Moreover, when MSCs were cultured with NK cells alone or NK cells with monocytes significant induction of B7H1 surface expression could be observed in surviving MSCs (FIG. 8I). […]

[3] = system: OSCCs; assay: Cell death of OSCCs by propidium iodide staining; assay type: cell-based, human; details: for levels of cell death (propidium iodide staining): overnight; for Dose dependent effect on oral tumors: UC-1 (OSCCs, differentiated oral tumor), FIG. 25
Method: as §1, §2, §3

[4] = system: pancreatic cells (BXPC3); assay: Cell death of BXPC3 pancreatic cells; assay type: cell-based; details: FIG. 26
[5] = system: OSCSCs; assay: Cell death of OSCSCs by propidium iodide staining; assay type: cell-based, human; details: UC2 (OSCSCs, stem-like oral tumors); FIG. 25
[6] = system: lung (A549) tumors; assay: Cell death of A549 lung tumors; assay type: cell-based; details: A549 pre-treated 5 days with supernatants from anergized NK cells (IL-2+anti-CD16 mAb), then Cisplatin overnight; FIG. 32
Method: NK treatments were carried out for 24 hours before the supernatants were removed and used to treat A549 lung tumors for 5 days. All the NK supernatant treated lung tumors were then washed and treated with different concentrations of Cisplatin as shown in the figure and incubated overnight before they were stained with propidium iodide to determine cell death in each sample.

[7] = OSCSCs, HEMA 1:600, cisplatinum 10, 40 and 80 μg/ml, FIG. 15
[8] = OSCCs, HEMA 1:600, cisplatinum 10, 40 and 80 μg/ml, FIG. 15

## C=C(C)C(=O)OCCO [HEMA]
[1]; [7]
  levels of cell death (propidium iodide staining): significantly more resistant; also recorded: Resistance
[2]
  levels of cell death (PI staining, flow cytometry): induced significant cell death
[3]; [8]
  levels of cell death (propidium iodide staining): lysed OSCCs significantly

## CC(=O)N[C@@H](CS)C(=O)O [NAC, N-acetylcysteine]
[4]; in the presence of cisplatin
  effect of NAC on cisplatin mediated killing of pancreatic cells: inhibits cisplatin mediated killing

## N.N.[Cl][Pt][Cl] [Cisplatin, cisplatin]
[1]; OSCSCs irradiated at 2, 10, 20 Gy, cisplatinum 40 μg/ml, FIG. 16
  levels of cell death (propidium iodide staining): significantly more resistant; also recorded: Resistance
[1]; [7]
  levels of cell death (propidium iodide staining): significantly more resistant; also recorded: Resistance
[4]
  cisplatin mediated killing of pancreatic cells: Dose dependent increase
[5]
  Dose dependent effect on oral tumors: does not kill OSCSCs
[3]; OSCCs irradiated at 2, 10, 20 Gy, cisplatinum 40 μg/ml, FIG. 16
  levels of cell death (propidium iodide staining): lysed OSCCs significantly
[3]; [8]
  levels of cell death (propidium iodide staining): lysed OSCCs significantly
[3]
  Dose dependent effect on oral tumors: increased effect on differentiated OSCCs
[6]
  cell death by Cisplatin (propidium iodide): highest induction of cell death by Cisplatin

## CC(=O)O[C@H]1C(=O)[C@@]2(C)[C@H]([C@H](OC(=O)c3ccccc3)[C@]3(O)C[C@H](OC(=O)[C@H](O)[C@@H](NC(=O)c4ccccc4)c4ccccc4)C(C)=C1C3(C)C)[C@]1(OC(C)=O)CO[C@@H]1C[C@@H]2O [Paclitaxel, paclitaxel]
[1]; OSCSCs (cancer stem cells), Paclitaxel 10, 40 and 80 μg/ml with and without NAC 20 mM, FIG. 17
  levels of cell death (propidium iodide staining): Lysis
[1]; OSCSCs (cancer stem cells), Paclitaxel 10, 40 and 80 μg/ml with and without NAC 20 mM, FIG. 17, listed as paclitaxel
  levels of cell death (propidium iodide staining): lysed both cell types
[5]
  Dose dependent effect on oral tumors: affects both cell types similarly
[3]; OSCCs, Paclitaxel 10, 40 and 80 μg/ml with and without NAC 20 mM, FIG. 17
  levels of cell death (propidium iodide staining): lysed both cell types
[3]
  Dose dependent effect on oral tumors: affects both cell types similarly
